From US11357786B2, “Synthetic disugar hydrocarbons as natural analogs to control microbial behaviors” (Syracuse University, priority 2014, dated 2022)

How the values were obtained:
Type in all cases: cell-based, Pseudomonas aeruginosa
[1] = system: PAO1 biofilm; experiment: Crystal violet dye based biofilm inhibition assay, maltose derivatives (Example 1); conditions: for Inhibition of PAO1 biofilm: 110 μM, 24 h, CV assay; for Anti-biofilm activity (inhibition): concentration not given
[2] = system: 24 h old PAO1 biofilm; experiment: Crystal violet biofilm dispersion assay, maltose derivatives (Example 1); conditions: concentration not given
Description: Chemical dispersion of already formed biofilm is often more relevant to medical application, and more challenging than biofilm inhibition assays, for which the agents are introduced at the onset of an experiment. We screened the ability of maltose derivatives at 110 μM to disperse 24 h old biofilm.
PAO1 was allowed to grow for 24 h at 37° C. After 24 h, bacterial culture was pipetted out and replaced with 200 μL of 110 μM maltose hydrocarbons and sterile water (control). After 1 h treatment with maltose hydrocarbons, biofilm was fixed and quantified using crystal violet dye as described above. The amount of dispersed biofilm was determined via comparison of the amount of biofilm at 24 h in the presence of maltose hydrocarbons versus the amount of biofilm in the “no compound” positive control at 24 h (wells with water treatment).
Predetermined amounts maltose derivatives stock solution was added to the 200 μL bacterial culture in 96 well plate so that the final concentration of the agent reaches the desired values of 1, 5, 10, 20, 40, 85, 113, 140 μM. Biofilm inhibition and dispersion assay was carried as described previously.

[3] = system: las quorum sensing system; experiment: las quorum sensing gene reporter assay (plasI-LVAgfp); conditions: natural autoinducers present
Description: (§1) The ability of the maltoside derivatives to antagonize the two quorum sensing circuits las and/or rhl of P. aeruginosa was investigated by using two reporter strains (PAO1/plasI-LVAgfp, PAO1/prhlI-LVAgfp). These reporter strains produce natural AHL signals, and binding of such signal molecules to the Lux-type receptor proteins ([…]) activates the expression of green fluorescent protein (GFP) encoded by the plasmid.
(§2) One of the recent approach for a nonmicrobicidal control of biofilm aims to develop agents that disrupt bacterial cell-to-cell communication by acting as mimics to the natural molecules (autoinducer) that bind […], which are encoded by las and rhl gene. The binding of these mimics with lasR and rhlR proteins either activates or represses the expression of lasI or rhlI.^6 In gene reporter assay, the expression of lasI and rhlI proteins is quantified by measuring expression of green fluorescent protein (GFP) fused to lasI and rhlI genes.^5 Two reporter strains of Pseudomonas aeruginosa (PAO1/plasI_LVAgfp and PAO1/prhlI_LVAgfp) express green fluorescence protein on activation of las or rhl quorum sensing system. The activation or repression of las or rhl quorum sensing system in PA was tested by various DSHs.
(§3) Strains PAO1/plasI-LVAgfp and PAO1/prhlI-LVAgfp were grown overnight in LB-media that was supplemented with 300 μg/mL carbenicillin and after 16 hours, the bacteria were sub cultured in LB media (supplemented with 300 μg/mL carbenicillin) to OD600 as 0.01. The OD600 was allowed to reach 0.1 and then 200 μL of culture was aliquoted into the wells of 96-well microtiter plate. DSHs were then added to assigned wells at two different concentrations (85 μM and 160 μM). No agent was added to the well for positive control. The plates then incubated at 37° C. for 24 h in a rotary shaking incubator (250 rpm). The culture from each well was then transferred to corresponding wells of a black walled flat-bottom, 96-well plate (μClear, Greiner-One 655096). The fluorescence and OD absorbance in each well was measured by Synergy 2 multi-mode microplate reader with aGen5 data analysis software. […] Fluorescence was measured at an excitation wavelength of 500 nm and an emission wavelength of 540 nm.
(§4) For an antagonist assay, overnight culture of P. aeruginosa PAO1/plasI-LVAgfp (las system) or PAO1/prhlI-LVAgfp (rhl system) in LB broth (supplemented with 300 μg/mL carbenicillin) was grown from a single colony on a LB agar plate supplemented with 300 μg/mL carbenicillin. […] The fluorescence and OD absorbance in each well was measured by Synergy 2 multi-mode microplate reader with Gen5 data analysis software. […] Fluorescence was measured at an excitation wavelength of 500 nm and an emission wavelength of 540 nm. […]

[4] = system: rhl quorum sensing system; experiment: rhl quorum sensing gene reporter assay (prhlI-LVAgfp); conditions: natural autoinducers present
Description: as §1, §2, §3, §4

SMILES | Inhibition of PAO1 biofilm [1] | Anti-biofilm activity (inhibition) [1] | Anti-biofilm activity (dispersion) [2] | Change of GFP fluorescence, las reporter strain PAO1/plasI-LVAgfp (antagonist assay) [3] | Change of GFP fluorescence, las reporter strain PAO1/plasI-LVAgfp (antagonist assay) ([3]; listed as 13: SFαC) | Change of GFP fluorescence, rhl reporter strain PAO1/prhlI-LVAgfp (antagonist assay) [4] | Change of GFP fluorescence, rhl reporter strain PAO1/prhlI-LVAgfp (antagonist assay) ([4]; listed as 13: SFαC) | Change of GFP fluorescence, las reporter strain PAO1/plasI-LVAgfp (antagonist assay) ([3]; listed as 12: SFβC) | Change of GFP fluorescence, rhl reporter strain PAO1/prhlI-LVAgfp (antagonist assay) ([4]; listed as 12: SFβC)
CCCCCCCCCCCCOS(=O)(=O)[O-].[Na+] [SDS, sodium dodecyl sulfate, reference compound] | did not show any noticeable biofilm inhibition | did not show any anti-biofilm activities | did not show any anti-biofilm activities | – | – | – | – | – | –
CC(C)CCCC(C)CCCC(C)CCO[C@H]1O[C@H](CO)[C@@H](O[C@@H]2O[C@H](CO)[C@@H](O)[C@H](O)[C@H]2O)[C@H](O)[C@H]1O (stereo partly drawn) [SFαC (13), saturated farnesyl-α-cellobioside] | – | – | – | neither SFβC (12) nor SFαC (13) caused a significant change in the fluorescence | no significant change in the fluorescence | neither SFβC (12) nor SFαC (13) caused a significant change in the fluorescence | no significant change in the fluorescence | – | –
CC(C)CCCC(C)CCCC(C)CCO[C@@H]1O[C@H](CO)[C@@H](O[C@@H]2O[C@H](CO)[C@@H](O)[C@H](O)[C@H]2O)[C@H](O)[C@H]1O (stereo partly drawn) [SFβC (12), saturated famesyl-β-cellobioside] | – | – | – | neither SFβC (12) nor SFαC (13) caused a significant change in the fluorescence | – | neither SFβC (12) nor SFαC (13) caused a significant change in the fluorescence | – | no significant change in the fluorescence | no significant change in the fluorescence
CCCCCCCCCCCCOCCOCCOCCOCCO [C12EG4OH, tetra (ethylene glycol) monododecyl ether, reference compound] | did not show any noticeable biofilm inhibition | did not show any anti-biofilm activities | did not show any anti-biofilm activities | – | – | – | – | – | –
